Patent publication US20240158355A1, “BET SUBFAMILY INHIBITORS AND METHODS USING SAME” (Baylor College of Medicine, priority 2021, published 2024)

target: BRDT-BD2 (Homo sapiens (Human), UniProt Q58F21); test: AlphaScreen bromodomain proximity assay (competition with biotinylated (+)-JQ1), BRDT-BD2; type: binding

SMILES	IC50
CC(=O)Nc1cc(NC(=O)c2ccc3c(c2)c(-c2ccc(Cl)cc2Cl)nn3C)ccc1C [compound 42, N-(3-Acetamido-4-methylphenyl)-3-(2,4-dichlorophenyl)-1-methyl-1H-indazole-5-carboxamide]	320 nM
CN1CCC(NC(=O)c2ccc3c(c2)c(-c2ccc(N)nc2)nn3C)CC1 [compound 50, 3-(6-Aminopyridin-3-yl)-1-methyl-N-(1-methylpiperidin-4-yl)-1H-indazole-5-carboxamide]	> 200 nM
COc1ccc(NC(=O)c2ccc3c(c2)c(-c2cc4ccccc4n2C)nn3C)cc1C(F)(F)F [compound 70, N-(4-Methoxy-3-(trifluoromethyl)phenyl)-1-methyl-3-(1-methyl-1H-indol-2-yl)-1H-indazole-5-carboxamide]	626 nM
COc1ccc(NC(=O)c2ccc3c(c2)c(-c2cc4ccccc4n2C)nn3C)cc1C#N [compound 71, N-(3-Cyano-4-methoxyphenyl)-1-methyl-3-(1-methyl-1H-indol-2-yl)-1H-indazole-5-carboxamide]	168 nM
COc1ccc(NC(=O)c2ccc3c(c2)c(-c2cc4ccccc4n2C)nn3C)cc1I [compound 69, N-(3-Iodo-4-methoxyphenyl)-1-methyl-3-(1-methyl-1H-indol-2-yl)-1H-indazole-5-carboxamide]	502 nM
COc1ccc(NC(=O)c2ccc3c(c2)c(-c2cc4ccccc4n2C)nn3C)cc1 [compound 28, N-(4-Methoxyphenyl)-1-methyl-3-(1-methyl-1H-indol-2-yl)-1H-indazole-5-carboxamide]	121 nM
COc1ccc(NC(=O)c2ccc3c(c2)c(-c2ccncc2)nn3C)cc1 [compound 43, N-(4-Methoxyphenyl)-1-methyl-3-(pyridin-4-yl)-1H-indazole-5-carboxamide]	978 nM
COc1ccc(NC(=O)c2ccc3c(c2)c(-c2cc4ccccc4n2C)nn3C)cc1Cl [compound 32, N-(3-Chloro-4-methoxyphenyl)-1-methyl-3-(1-methyl-1H-indol-2-yl)-1H-indazole-5-carboxamide]	164 nM
COc1ccc(NC(=O)c2ccc3c(c2)c(-c2ccc(NC(C)=O)cc2C)nn3C)cc1 [compound 66, 3-(4-Acetamido-2-methylphenyl)-N-(4-methoxyphenyl)-1-methyl-1H-indazole-5-carboxamide]	> 10000 nM
CNC(=O)[C@H]1CC[C@H](C(=O)Nc2cc(NC(=O)c3ccc4c(c3)c(-c3ccc(N)nc3)nn4C)ccc2C)CC1 [compound 49]	68 nM
COc1ccc(NC(=O)c2ccc3c(c2)c(-c2cc4ccccc4n2C)nn3C)cc1-c1ccccc1 [compound 72, N-(6-Methoxy-[1,1′-biphenyl]-3-yl)-1-methyl-3-(1-methyl-1H-indol-2-yl)-1H-indazole-5-carboxamide]	2390 nM
COc1ccc(NC(=O)c2ccc3c(c2)c(-c2cc4ccccc4n2C)nn3C)cc1S(N)(=O)=O [compound 73, N-(4-Methoxy-3-sulfamoylphenyl)-1-methyl-3-(1-methyl-1H-indol-2-yl)-1H-indazole-5-carboxamide]	111 nM
COc1ccc(NC(=O)c2ccc3c(c2)c(-c2cc4ccccc4n2C)nn3C)c(OC)c1 [compound 34, N-(2,4-Dimethoxyphenyl)-1-methyl-3-(1-methyl-1H-indol-2-yl)-1H-indazole-5-carboxamide]	926 nM
Cc1ccc(NC(=O)c2ccc3c(c2)c(-c2ccc(N)cc2C)nn3C)cc1C(N)=O [compound 56, 3-(4-Amino-2-methylphenyl)-N-(3-carbamoyl-4-methylphenyl)-1-methyl-1H-indazole-5-carboxamide]	34 nM
Cc1ccc(NC(=O)c2ccc3c(c2)c(-c2ccc(N)nc2)nn3C)cc1NC(=O)C1CCN(C)CC1 [compound 45, 3-(6-Aminopyridin-3-yl)-1-methyl-N-(4-methyl-3-(1-methylpiperidine-4-carboxamido)phenyl)-1H-indazole-5-carboxamide]	58 nM
COc1ccc(NC(=O)c2ccc3c(c2)c(-c2cc4ccccc4n2C)nn3C)cc1OC [compound 30, N-(3,4-Dimethoxyphenyl)-1-methyl-3-(1-methyl-1H-indol-2-yl)-1H-indazole-5-carboxamide]	101 nM
CNC(=O)c1ccc(C(=O)Nc2cc(NC(=O)c3ccc4c(c3)c(-c3ccc(N)nc3C)nn4C)ccc2C)cc1 [compound 14, N^1-(5-(3-(6-Amino-2-methylpyridin-3-yl)-1-methyl-1H-indazole-5-carboxamido)-2-methylphenyl)-N^4-methylterephthalamide]	94 nM
Cc1cc(N)ccc1-c1nn(C)c2ccc(C(=O)Nc3ccc(F)cc3)cc12 [compound 63, 3-(4-Amino-2-methylphenyl)-N-(4-fluorophenyl)-1-methyl-1H-indazole-5-carboxamide]	101 nM
COc1ccc(NC(=O)c2ccc3c(c2)c(-c2ccncc2C)nn3C)cc1 [compound 44, N-(4-Methoxyphenyl)-1-methyl-3-(3-methylpyridin-4-yl)-1H-indazole-5-carboxamide]	705 nM

SMILES	IC50
Cc1cc(N)ccc1-c1nn(C)c2ccc(C(=O)Nc3ccc(C(F)(F)F)cc3)cc12 [compound 61, 3-(4-Amino-2-methylphenyl)-1-methyl-N-(4-(trifluoromethyl)phenyl)-1H-indazole-5-carboxamide]	898 nM
CCOc1ccc(NC(=O)c2ccc3c(c2)c(-c2ccc(N)cc2C)nn3C)cc1 [compound 62, 3-(4-Amino-2-methylphenyl)-N-(4-ethoxyphenyl)-1-methyl-1H-indazole-5-carboxamide]	48 nM
Cc1ccc(NC(=O)c2ccc3c(c2)c(-c2ccc(N)nc2)nn3C)cc1NC(=O)N1CCNCC1 [compound 46, 3-(6-Aminopyridin-3-yl)-1-methyl-N-(4-methyl-3-(piperazine-1-carboxamido)phenyl)-1H-indazole-5-carboxamide]	79 nM
COc1ccc(NC(=O)c2ccc3c(c2)c(-c2cc4ccccc4n2C)nn3C)c(Cl)c1 [compound 36, N-(2-Chloro-4-methoxyphenyl)-1-methyl-3-(1-methyl-1H-indol-2-yl)-1H-indazole-5-carboxamide]	> 1250 nM
COc1ccc(NC(=O)c2ccc3c(c2)c(-c2cc4ccccc4n2C)nn3C)cc1Br [compound 68, N-(3-Bromo-4-methoxyphenyl)-1-methyl-3-(1-methyl-1H-indol-2-yl)-1H-indazole-5-carboxamide]	274 nM
CC(=O)Nc1cc(NC(=O)c2ccc3c(c2)c(-c2cnc(N)cc2C)nn3C)ccc1C [compound 16, N-(3-Acetamido-4-methylphenyl)-3-(6-amino-4-methylpyridin-3-yl)-1-methyl-1H-indazole-5-carboxamide]	126 nM
Cc1ccc(NC(=O)c2ccc3c(c2)c(-c2ccc(N)nc2)nn3C)cc1NC(=O)[C@H]1CC[C@@H](N)CC1 [compound 48, N-(3-((1s,4s)-4-Aminocyclohexane-1-carboxamido)-4-methylphenyl)-3-(6-aminopyridin-3-yl)-1-methyl-1H-indazole-5-carboxamide]	51 nM
CNC(=O)c1cccc(NC(=O)c2ccc3c(c2)c(-c2ccc(N)cc2C)nn3C)c1 [compound 57, 3-(4-Amino-2-methylphenyl)-1-methyl-N-(3-(methylcarbamoyl)phenyl)-1H-indazole-5-carboxamide]	29 nM
CNC(=O)c1ccc(C(=O)Nc2cc(NC(=O)c3ccc4c(c3)c(-c3ccc(OCc5ccccc5)cc3)nn4C)ccc2C)cc1 [compound 37, N^1-(5-(3-(4-(Benzyloxy)phenyl)-1-methyl-1H-indazole-5-carboxamido)-2-methylphenyl)-N^4-methylterephthalamide]	> 10000 nM
Cc1ccc(NC(=O)c2ccc3c(c2)c(-c2ccc(N)cc2C)nn3C)cc1 [compound 60, 3-(4-Amino-2-methylphenyl)-1-methyl-N-(p-tolyl)-1H-indazole-5-carboxamide]	91 nM
Cn1nc(-c2ccc(N)nc2)c2cc(C(=O)NC3CCN(C(=O)OC(C)(C)C)CC3)ccc21 [compound 52, tert-Butyl 4-(3-(6-aminopyridin-3-yl)-1-methyl-1H-indazole-5-carboxamido)piperidine-1-carboxylate]	> 200 nM
COc1ccc(NC(=O)c2ccc3c(c2)c(-c2cc4ccccc4n2C)nn3C)c(C(N)=O)c1 [compound 75, N-(2-Carbamoyl-4-methoxyphenyl)-1-methyl-3-(1-methyl-1H-indol-2-yl)-1H-indazole-5-carboxamide]	4370 nM
COc1ccc(NC(=O)c2ccc3c(c2)c(-c2cc4ccccc4n2C)nn3C)cc1F [compound 31, N-(3-Fluoro-4-methoxyphenyl)-1-methyl-3-(1-methyl-1H-indol-2-yl)-1H-indazole-5-carboxamide]	119 nM
COc1ccc(NC(=O)c2ccc3c(c2)c(-c2cc4ccccc4n2C)nn3C)cc1C [compound 29, N-(4-Methoxy-3-methylphenyl)-1-methyl-3-(1-methyl-1H-indol-2-yl)-1H-indazole-5-carboxamide]	111 nM
CNC(=O)c1ccc(C(=O)Nc2cc(NC(=O)c3ccc4c(c3)c(-c3ccc(Cl)cc3)nn4C)ccc2C)cc1 [compound 40, N^1-(5-(3-(4-Chlorophenyl)-1-methyl-1H-indazole-5-carboxamido)-2-methylphenyl)-N^4-methylterephthalamide]	106 nM
Cn1nc(-c2ccc(N)nc2)c2cc(C(=O)Nc3cccc(C(=O)O)c3)ccc21 [compound 54, 3-(3-(6-Aminopyridin-3-yl)-1-methyl-1H-indazole-5-carboxamido)benzoic acid]	381 nM
Cn1nc(-c2ccc(N)nc2)c2cc(C(=O)NC3CCNCC3)ccc21 [compound 53, 3-(6-Aminopyridin-3-yl)-1-methyl-N-(piperidin-4-yl)-1H-indazole-5-carboxamide]	> 200 nM
COc1ccc(NC(=O)c2ccc3c(c2)c(-c2cc4ccccc4n2C)nn3C)c(F)c1 [compound 35, N-(2-Fluoro-4-methoxyphenyl)-1-methyl-3-(1-methyl-1H-indol-2-yl)-1H-indazole-5-carboxamide]	203 nM
Cc1ccc(NC(=O)c2ccc3c(c2)c(-c2ccc(N)nc2)nn3C)cc1NC(=O)C1CCCCC1 [compound 47, 3-(6-Aminopyridin-3-yl)-N-(3-(cyclohexanecarboxamido)-4-methylphenyl)-1-methyl-1H-indazole-5-carboxamide]	113 nM
